Data as given in the supplement of paper PMC6045584.
± gives the standard deviation of the averaged measurements.

Tests used:
GEFITINIB = compound: COc1cc2ncnc(Nc3ccc(F)c(Cl)c3)c2cc1OCCCN1CCOCC1 [GEFITINIB]; test: surviving fraction relative to DMSO-only wells; higher = less growth inhibition; conditions: exposure time: 5 days
Outline: (§1)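 Log-phase tumour cell lines were seeded at 250–500 cells per well in 384-well plates. After 24 hours they were exposed continuously for five days to inhibitors at 0.5, 1, 5, 10, 50, 100, 500 and 1000 nM. Viability was read by CellTiter-Glo luminescence after 10 minutes at room temperature, and surviving fraction is luminescence normalised to the median of DMSO-only wells. Each line was screened three times and kept only if replicate Pearson r >0.7 and median Z' >0.3.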

YM155 = compound: COCC[n+]1c2c(n(Cc3cnccn3)c1C)C(=O)c1ccccc1C2=O [YM155]; test: as above; conditions: exposure time: 5 days
Outline: as §1

Test System | surviving fraction (GEFITINIB; 0.5 nM) | surviving fraction (GEFITINIB; 1 nM) | surviving fraction (GEFITINIB; 5 nM) | surviving fraction (GEFITINIB; 10 nM) | surviving fraction (GEFITINIB; 50 nM) | surviving fraction (GEFITINIB; 100 nM) | surviving fraction (GEFITINIB; 500 nM) | surviving fraction (GEFITINIB; 1000 nM) | surviving fraction (YM155; 0.5 nM) | surviving fraction (YM155; 1 nM) | surviving fraction (YM155; 5 nM) | surviving fraction (YM155; 10 nM) | surviving fraction (YM155; 50 nM) | surviving fraction (YM155; 100 nM) | surviving fraction (YM155; 500 nM) | surviving fraction (YM155; 1000 nM)
YAMATO SYNOVIAL | 1.24 ± 0.098 | 1.21 ± 0.05 | 1.25 ± 0.043 | 1.36 ± 0.15 | 1.42 ± 0.086 | 1.32 ± 0.1 | 1.35 ± 0.08 | 1.09 ± 0.046 | 0.656 ± 0.066 | 0.874 ± 0.067 | 0.39 ± 0.039 | 0.29 ± 0.027 | 0.229 ± 0.014 | 0.206 ± 0.0017 | 0.191 ± 0.015 | 0.267 ± 0.016
MDAMB361 BREAST | 0.861 ± 0.02 | 0.851 ± 0.071 | 0.908 ± 0.025 | 1 ± 0.042 | 0.89 ± 0.14 | 0.859 ± 0.15 | 0.834 ± 0.092 | 0.834 ± 0.13 | 0.869 ± 0.069 | 0.826 ± 0.073 | 0.919 ± 0.23 | 0.549 ± 0.041 | 0.224 ± 0.0076 | 0.191 ± 0.022 | 0.103 ± 0.0066 | 0.0887 ± 0.0074
KPD BONE | 0.994 ± 0.06 | 1.01 ± 0.04 | 0.84 ± 0.36 | 0.81 ± 0.34 | 1.06 ± 0.1 | 1.04 ± 0.076 | 0.952 ± 0.04 | 0.934 ± 0.029 | 0.966 ± 0.037 | 0.995 ± 0.068 | 0.519 ± 0.033 | 0.266 ± 0.046 | 0.0473 ± 0.0081 | 0.0347 ± 0.004 | 0.0237 ± 0.0025 | 0.0257 ± 0.0021
CADOES1 SOFT TISSUE | 1.01 ± 0.045 | 0.9 ± 0.058 | 0.852 ± 0.063 | 0.906 ± 0.13 | 0.824 ± 0.12 | 0.942 ± 0.11 | 0.953 ± 0.12 | 0.995 ± 0.16 | 1.06 ± 0.12 | 0.907 ± 0.093 | 0.92 ± 0.096 | 0.911 ± 0.12 | 1.02 ± 0.056 | 0.934 ± 0.071 | 0.852 ± 0.054 | 0.881 ± 0.064
DU4475 BREAST | 0.921 ± 0.068 | 0.955 ± 0.045 | 0.82 ± 0.095 | 0.914 ± 0.01 | 0.879 ± 0.14 | 0.906 ± 0.16 | 1.01 ± 0.1 | 0.889 ± 0.069 | 0.934 ± 0.11 | 0.805 ± 0.044 | 0.839 ± 0.08 | 0.903 ± 0.21 | 0.108 ± 0.025 | 0.0437 ± 0.008 | 0.0273 ± 0.0015 | 0.0337 ± 0.0038
HMT3552 BREAST | 0.987 ± 0.065 | 1 ± 0.052 | 0.97 ± 0.038 | 0.952 ± 0.018 | 0.946 ± 0.048 | 0.94 ± 0.036 | 0.94 ± 0.017 | 0.856 ± 0.043 | 0.983 ± 0.045 | 1.015 ± 0.009 | 1.06 ± 0.015 | 1.05 ± 0.056 | 0.17 ± 0.027 | 0.0797 ± 0.0055 | 0.0473 ± 0.0035 | 0.0537 ± 0.00058
LM7 BONE | 0.988 ± 0.039 | 1.01 ± 0.034 | 1.1 ± 0.07 | 1.1 ± 0.036 | 1.12 ± 0.013 | 1.12 ± 0.1 | 0.963 ± 0.054 | 0.825 ± 0.016 | 0.943 ± 0.029 | 0.889 ± 0.053 | 0.433 ± 0.018 | 0.201 ± 0.019 | 0.039 ± 0.0056 | 0.0237 ± 0.00058 | 0.0197 ± 0.00058 | 0.025 ± 0.0017
VCAP PROSTATE | 1.13 ± 0.089 | 1.11 ± 0.14 | 1.13 ± 0.12 | 1.15 ± 0.14 | 1.19 ± 0.083 | 1.08 ± 0.056 | 1.21 ± 0.16 | 1.07 ± 0.076 | 0.826 ± 0.049 | 0.9053 ± 0.0074 | 0.34 ± 0.025 | 0.286 ± 0.051 | 0.0533 ± 0.027 | 0.035 ± 0.007 | 0.0293 ± 0.0067 | 0.0617 ± 0.03
HOS BONE | 1.01 ± 0.02 | 1.034 ± 0.0087 | 1.041 ± 0.01 | 1.04 ± 0.032 | 1.06 ± 0.033 | 1.07 ± 0.031 | 1.01 ± 0.021 | 0.973 ± 0.013 | 0.923 ± 0.0036 | 0.503 ± 0.017 | 0.075 ± 0.0078 | 0.0527 ± 0.0038 | 0.0267 ± 0.00058 | 0.0197 ± 0.00058 | 0.0193 ± 0.00058 | 0.0243 ± 0.00058
HS57T BREAST | 0.973 ± 0.033 | 0.994 ± 0.088 | 1.01 ± 0.024 | 1.02 ± 0.05 | 1.05 ± 0.059 | 1.02 ± 0.061 | 1.01 ± 0.065 | 0.9383 ± 0.0032 | 0.919 ± 0.02 | 0.923 ± 0.056 | 0.729 ± 0.058 | 0.799 ± 0.1 | 0.287 ± 0.029 | 0.182 ± 0.013 | 0.0527 ± 0.0015 | 0.0473 ± 0.0047
